Reference: patent US4379165A, “Anti-convulsant” (priority 1981, dated 1983)
Entries after “also recorded” stand apart in the source; their conditions may differ. Like-named read-outs stand apart in the source and are kept apart here.

Experiments:
[1] = tested on: maximal electroshock seizures; assay: maximal electroshock seizure (MES) pattern test, mice; details: for ED50: Mus musculus, read-out: ED50 MES
Experimental: (§1) The solution was prepared by dissolving the compound in 30% polyethylene glycol 400. The compound was injected either orally or intraperitoneally in a volume of 0.01 ml/g body weight in mice and 0.04 ml/10 g body weight in rats.
(§2) The profile of anti-convulsant activity for each substance was established by five tests: one electrical and four chemical. The electrical test employed was the maximal electroshock seizure (MES) pattern test. […] These tests are conducted by administering the anti-convulsant compound or drug to the animals then giving the convulsive amount of electrical energy or chemical convulsant and measuring the ability of the test compound to prevent the production of convulsions.
(§3) This test measures the ability of the test drug to abolish the hind-limb tonic-extensor component of maximal seizures induced by 50 mA of current delivered to the animals for 0.2 seconds.

[2] = tested on: subcutaneous metrazol seizure threshold; assay: subcutaneous Metrazol Seizure Threshold Test (sc Met), mice; details: for ED50: Mus musculus, read-out: ED50 sc Met
Experimental: as §1
(§4) The profile of anti-convulsant activity for each substance was established by five tests: one electrical and four chemical. The electrical test employed was the maximal electroshock seizure (MES) pattern test. The four chemical tests included the subcutaneous Metrazol Seizure Threshold Test (sc Met), subcutaneous Bicuculline Seizure Threshold Test (sc Bic), subcutaneous Picrotoxin Seizure Threshold Test (sc Pic), and the subcutaneous Strychnine Seizure Pattern Test (sc Strych). These tests are conducted by administering the anti-convulsant compound or drug to the animals then giving the convulsive amount of electrical energy or chemical convulsant and measuring the ability of the test compound to prevent the production of convulsions.
(§5) (b) scMet=Subcutaneous metrazol seizure threshold test. The test measures the ability of the test drug to afford complete protection against a subcutaneously administered convulsant dose of metrazol.
(§6) (j) PI=Protective index, defined as the ratio of TD50 to ED50 (TD50/ED50).

[3] = in vivo; details: mouse
Experimental: as §1
(§7) Untreated or normal animals can easily maintain their balance in this test.

[4] = tested on: lethality; assay: lethality, LD50; assay type: in vivo; details: mice; intraperitoneal; 24-hour period
Experimental: (§8) The anti-convulsant amide (4) was administered to mice and rats as a solution. The solution was prepared by dissolving the compound in 30% polyethylene glycol 400. The compound was injected either orally or intraperitoneally in a volume of 0.01 ml/g body weight in mice and 0.04 ml/10 g body weight in rats.

[5] = tested on: maximal electroshock seizures; assay: maximal electroshock seizure (MES) pattern test, rats; details: for ED50: Rattus norvegicus, po, read-out: ED50 MES
Experimental: as §1, §2, §3

[6] = tested on: subcutaneous metrazol seizure threshold; assay: subcutaneous Metrazol Seizure Threshold Test (sc Met), rats; details: for animals protected vs sc Met test: intraperitoneal, footnote of Table 5; for ED50: Rattus norvegicus, po
Experimental: as §1, §4, §5, §6

[7] = tested on: subcutaneous strychnine seizure pattern; details: mice
Experimental: as §1
(§9) The profile of anti-convulsant activity for each substance was established by five tests: one electrical and four chemical. […] The four chemical tests included the subcutaneous Metrazol Seizure Threshold Test (sc Met), subcutaneous Bicuculline Seizure Threshold Test (sc Bic), subcutaneous Picrotoxin Seizure Threshold Test (sc Pic), and the subcutaneous Strychnine Seizure Pattern Test (sc Strych). These tests are conducted by administering the anti-convulsant compound or drug to the animals then giving the convulsive amount of electrical energy or chemical convulsant and measuring the ability of the test compound to prevent the production of convulsions.
(§10) (e) ScStrych=Subcutaneous strychnine seizure pattern test. The test measures the ability of the test drug to abolish all toxic components of seizures induced by the subcutaneous injection of a convulsant dose of strychnine.

[8] = tested on: subcutaneous picrotoxin seizure threshold; details: mice
Experimental: as §1, §4
(§11) (d) scPic=Subcutaneous picrotoxin seizure threshold test.
(§12) (j) PI=Protective index, defined as the ratio of TD50 to ED50 (TD50/ED50). The PI is a measure of the safety of the drug. A high PI value indicates a greater margin of safety between the effective dose for the pharmacological effect and the toxic dose producing side-effects. A compound with a high PI would be a safer drug to use.

[9] = Rotorod Toxicity Test, rats; assay type: in vivo; details: rat, in vivo, po
Experimental: as §1, §7

[10] = tested on: subcutaneous bicuculline seizure threshold; assay: subcutaneous Bicuculline Seizure Threshold Test (sc Bic); details: for ED50: Mus musculus, ip, read-out: ED50 Bicuculline, mice
Experimental: as §1, §9
(c) scBic=Subcutaneous bicuculline seizure threshold test.
as §6

[11] = in vivo; details: mouse, ip
Experimental: as §1
(§13) (h) HD50=Hypnotic dose in 50% of the subjects tested.
(§14) (l) Slope of regression line--This represents the rate of change in response (effect) for a change in dose. The higher the numerical value of the slope, the greater the rate of change in response.

[12] = lethality, LD50; assay type: in vivo; details: mouse, in vivo, ip, mice, intraperitoneal; for LD50 at 24 h: 24-hour period
Experimental: as §8

[13] = tested on: subcutaneous picrotoxin seizure threshold; assay: animal or person; details: Mus musculus, ip, read-out: ED50 Picrotoxin
Experimental: as §1, §4, §11, §12

[14] = tested on: subcutaneous strychnine seizure pattern; assay: animal or person; details: Mus musculus, ip, read-out: ED50 Strychnine
Experimental: as §1, §9, §10

[15] = tested on: ability to maintain balance on a rotating rod
Experimental: as §1, §7

[16] = tested on: Salmonella indicator organisms; assay: in vitro microbial mutagenicity assays; details: 1.0 ug to 10,000.0 ug per plate
Experimental: The amide was examined for mutagenic activity in a series of in vitro microbial assays employing Salmonella indicator organisms. The compound was tested directly and in the presence of liver microsomal enzyme preparations from Aroclor-induced rats. The dose range employed for the evaluation was from 1.0 ug to 10,000.0 ug per plate. The results of the tests conducted on the amide in the absence of a metabolic activation system and in the presence of a rat liver activation system were negative.

[17] = tested on: righting reflex; assay: hypnosis (loss of righting reflex), HD50; details: mice; intraperitoneal
Experimental: as §1, §13, §14

[18] = hypnosis (loss of righting reflex), HD50; details: mouse, in vivo, ip
Experimental: as §1, §13, §14

[19] = maximal electroshock seizure (MES) pattern test, rats; details: rat, in vivo, po, PI (TD50/ED50) MES, rats (Table 7; title of Table 5 prints Mice)
Experimental: as §1, §2, §3

[20] = subcutaneous Metrazol Seizure Threshold Test (sc Met), mice; details: mouse, in vivo, PI (TD50/ED50) sc Met, mice
Experimental: as §1, §4, §5, §6

[21] = in vivo; details: mouse; remark: listed apart in the source
Experimental: as §1, §2, §3

[22] = tested on: ability to maintain balance on a rotating rod; assay: Rotorod Toxicity Test, rats; assay type: in vivo; details: for animals toxic: intraperitoneal, footnote of Table 5
Experimental: as §1, §7

[23] = tested on: convulsions; assay: anti-convulsant activity, overall statements from animal studies; assay type: in vivo; details: mice and rats
[24] = subcutaneous Metrazol Seizure Threshold Test (sc Met), rats; details: rat, in vivo, po
Experimental: as §1, §4, §5, §6

[25] = mice, intraperitoneal, up to 100 (mg/kg)
[26] = mice, oral, at / up to 300 (mg/kg)
[27] = rats (Table 7; title of Table 5 prints Mice), oral
[28] = rats (Table 7; title of Table 5 prints Mice), oral, at 300 (mg/kg)

CCCCCNC(=O)c1ccc(N)cc1 [compound 3]
ED50 ([1]; ip): 43 mg/kg
ED50 ([2]; ip): 57.3 mg/kg
TD50 ([3]; ip): 68.5 mg/kg

O=C1NC(=O)C(c2ccccc2)(c2ccccc2)N1 [Phenytoin]
LD50 (lethality) [4]: 229.61 mg/kg
ED50 [5]: 29.8 mg/kg
protection, sc Met ([6]; rats (Table 7; title of Table 5 prints Mice), oral, up to 800 (mg/kg)): No pro-
Max. Prot., Strychnine ([7]; intraperitoneal, at 55-100 (mg/kg)): 50%
protection, Picrotoxin ([8]; intraperitoneal, up to 100 (mg/kg)): No pro-
protection, sc Met [2, 25]: No pro-
protection, sc Met ([2]; mice, intraperitoneal, up to 300 (mg/kg)): No protect-; also recorded: No protection
protection, sc Met [2, 26]: No protection; also recorded: No pro-
TD50 [9]: > 3000 mg/kg
protection, Bicuculline [10, 25]: No pro-
TD50 [11]: 178 mg/kg

Nc1ccc(C(=O)NCc2ccccc2)cc1 [No. 4, 4-amino-N-benzyl-benzamide]
ED50 ([1]; ip): 23.3 mg/kg
TD50 ([3]; ip): 83.4 mg/kg

NC(=O)N1c2ccccc2C=Cc2ccccc21 [Carbamazepine]
ED50 ([1]; ip): 8.81 mg/kg
ED50 ([1]; po): 15.4 mg/kg
LD50 at 24 h [12]: 629 mg/kg
ED50 [13]: 37.2 mg/kg
ED50 [5]: 8.5 mg/kg
sc Met result in words [6, 27]: Variable
ED50 [14]: 78.8 mg/kg
ED50 ([2]; po): 48.1 mg/kg
protection, sc Met [2, 25]: No protection; also recorded: No protect-
fraction protected, Bicuculline ([10]; mice, intraperitoneal, 100 mg/kg): 1/2
Max. Prot., Bicuculline ([10]; mice, intraperitoneal, at 50-130 (mg/kg)): 62.5%
TD50 [11]: 172 mg/kg

Nc1ccc(C(=O)Nc2ccccc2)cc1 [compound 1]
ED50 ([1]; ip): 50.5 mg/kg
TD50 ([15]; mouse, in vivo, ip): 111.30 mg/kg
ED50 ([2]; ip): 59.1 mg/kg

Nc1ccc(C(=O)NC2CCCCC2)cc1 [compound 2]
ED50 ([1]; ip): 67.2 mg/kg
ED50 ([2]; ip): 123 mg/kg
TD50 ([3]; ip): 189 mg/kg

CC(NC(=O)c1ccc(N)cc1)c1ccccc1 (stereo not drawn) [4-amino-N-(alpha-methylbenzyl)-benzamide]
oral ED50/i.p. ED50 ([1]; MES test in mice): 2.65
ED50 ([1]; ip): 18 mg/kg
ED50 ([1]; po): 47.7 mg/kg
absorption after oral administration ([1]; mice, from oral ED50/i.p. ED50 in MES test): adequately absorbed
mutagenic activity ([16]; absence of a metabolic activation system): negative
mutagenic activity ([16]; rat liver activation system): negative
selectivity ratio ([12]; read-out: Ratio LD50/HD50): 1.56
selectivity ratio ([12]; read-out: Ratio LD50/TD50): 4.21
LD50 at 24 h [12]: 718 mg/kg
ED50 [13]: 191 mg/kg
HD50 (righting reflex) [17]: 461.76 mg/kg
TD50 [18]: 462 mg/kg
ED50 [5]: 16.1 mg/kg
PI (TD50/ED50) MES [5, 27]: 10.5
selectivity ratio [19]: 10.6
animals protected vs sc Met test ([6]; 75 mg/kg): 4/8
animals protected vs sc Met test ([6]; 150 mg/kg): 8/8
Max. Prot., sc Met [6, 28]: 50%
animals with recurring clonic seizures, sc Met [6, 28]: 1 of 8
activity against seizures induced by strychnine ([7]; in words): only partially effective
PI (TD50/ED50) Strychnine ([7]; intraperitoneal): < 0.85
Maximum protection, Strychnine ([7]; intraperitoneal, at 170 mg/kg): 37.5%
protection, Strychnine ([7]; intraperitoneal, at 200 (mg/kg)): 25%
Rotorod TD50 ([15]; mice, intraperitoneal): 170.78 mg/kg
activity against picrotoxin seizures ([8]; in words): effective against picrotoxin seizures in toxic doses
PI (TD50/ED50) Picrotoxin ([8]; intraperitoneal): 0.89
ED50 ([2]; ip): 41.7 mg/kg
Maximum protection, sc Met ([2]; mice, oral, at 100 (mg/kg)): 25%
protection, sc Met [2, 26]: no protection and No
selectivity ratio ([20]; intraperitoneal): 4.09
selectivity ratio ([20]; oral): < 0.9
selectivity ratio ([21]; ip): 9.48
selectivity ratio ([21]; po): 5.69
TD50 [9]: 170 mg/kg
animals toxic ([22]; 75 mg/kg): 2/8
animals toxic ([22]; 150 mg/kg): 6/8
anti-convulsant activity in words [23]: effective against a wide range of convulsion types; also recorded: exhibits anti-convulsant activity in mice and rats
ED50 ([10]; intraperitoneal): 39.1 mg/kg
activity against seizures induced by bicuculline ([10]; mice, in words): effective against seizures induced by bicuculline
PI (TD50/ED50) Bicuculline ([10]; mice, intraperitoneal): 4.37
TD50 ([3]; ip): 171 mg/kg
TD50 ([3]; po): 271 mg/kg

CCC1(c2ccccc2)NC(=O)N(C)C1=O (stereo not shown) [Mephenytoin]
ED50 ([1]; ip): 60.5 mg/kg
ED50 ([1]; po): 65.9 mg/kg
selectivity ratio ([12]; read-out: Ratio LD50/HD50): 1.4
selectivity ratio ([12]; read-out: Ratio LD50/TD50): 3.69
LD50 at 24 h [12]: 568 mg/kg
ED50 [13]: 101 mg/kg
ED50 [5]: 18.1 mg/kg
selectivity ratio [19]: 4.74
ED50 ([6]; read-out: ED50 sc Met): 21.6 mg/kg
selectivity ratio [24]: 3.96
Max. Prot., Strychnine ([7]; intraperitoneal, at 70-150 (mg/kg)): 50%
PI (TD50/ED50) Picrotoxin ([8]; intraperitoneal): 1.52
ED50 ([2]; ip): 30.4 mg/kg
ED50 ([2]; po): 36.3 mg/kg
PI (TD50/ED50) sc Met ([2]; mice, oral): 9.73
selectivity ratio ([20]; intraperitoneal): 5.05
selectivity ratio ([20]; oral): 9.75
selectivity ratio ([21]; ip, PI (TD50/ED50) MES, mice, intraperitoneal): 2.54
selectivity ratio ([21]; po, PI (TD50/ED50) MES, mice): 5.37
TD50 [9]: 85.7 mg/kg
PI (TD50/ED50) Bicuculline ([10]; mice, intraperitoneal): 1.24
TD50 [11]: 406 mg/kg
TD50 ([3]; po): 354 mg/kg

CCC1(c2ccccc2)C(=O)NC(=O)NC1=O [Phenobarbital]
ED50 ([1]; ip): 21.8 mg/kg
ED50 ([1]; po): 20.1 mg/kg
LD50 (lethality) [4]: 264.70 mg/kg
ED50 [13]: 27.5 mg/kg
HD50 (righting reflex) [17]: 135.45 mg/kg
TD50 [18]: 135 mg/kg
ED50 [5]: 9.14 mg/kg
ED50 ([6]; read-out: ED50 sc Met, rats (Table 7; title of Table 5 prints Mice), oral): 11.6 mg/kg
ED50 sc Met [6, 27]: 11.58 mg/kg
ED50 [14]: 95.3 mg/kg
ED50 ([2]; ip): 13.2 mg/kg
ED50 ([2]; po): 12.6 mg/kg
Rotorod TD50 [22, 27]: 61.09 mg/kg
ED50 ([10]; intraperitoneal): 37.7 mg/kg

CCCN(CCC)C(=O)c1ccc(N)cc1 [compound 5]
ED50 ([1]; ip): 61.7 mg/kg
TD50 ([3]; ip): 116 mg/kg
